From PubChem BioAssay AID1963968 (Molecular Pharmacology Branch, DTP, NCI, 2024)

Tested on: 945468-187-T-J3-PDC spheroids with HUVEC/MSC, viability
Assay: Anticancer human tumor 945468-187-T-J3-PDC patient-derived rectal carcinoma cell line growth inhibition [PI3K]
Conditions: for IC50: curve of first compound; for viability, T/C: stronger effect = lower value; active = viability on the fitted dose curve at most 10% of control; inactive = the rest
Method in brief: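 Combination activity was assessed by viability in multicellular tumor spheroids carrying HUVEC and MSC components. Agents were tested with PI3K inhibitors from a Cmax-based top dose (or 10 microM) downward in half-log increments.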

[1] = second compound 0.00316 µM, first compound 0.0316 µM
[2] = second compound 0.00316 µM, first compound 0.1 µM
[3] = second compound 0.01 µM, first compound 0.0316 µM
[4] = second compound 0.01 µM, first compound 0.1 µM
[5] = second compound 0.0316 µM, first compound 0.0316 µM
[6] = second compound 0.0316 µM, first compound 0.1 µM
[7] = second compound 0.1 µM, first compound 0.0316 µM
[8] = second compound 0.1 µM, first compound 0.1 µM
[9] = second compound 0.316 µM, first compound 0.0316 µM
[10] = second compound 0.316 µM, first compound 0.1 µM
[11] = second compound 1 µM, first compound 0.0316 µM
[12] = second compound 1 µM, first compound 0.1 µM
[13] = second compound 0.00316 µM, first compound 0.316 µM
[14] = second compound 0.00316 µM, first compound 1 µM
[15] = second compound 0.00316 µM, first compound 3.16 µM
[16] = second compound 0.00316 µM, first compound 10 µM
[17] = second compound 0.01 µM, first compound 0.316 µM
[18] = second compound 0.01 µM, first compound 1 µM
[19] = second compound 0.01 µM, first compound 3.16 µM
[20] = second compound 0.01 µM, first compound 10 µM
[21] = second compound 0.0316 µM, first compound 0.316 µM
[22] = second compound 0.0316 µM, first compound 1 µM
[23] = second compound 0.0316 µM, first compound 3.16 µM
[24] = second compound 0.0316 µM, first compound 10 µM
[25] = second compound 0.1 µM, first compound 0.316 µM
[26] = second compound 0.1 µM, first compound 1 µM
[27] = second compound 0.1 µM, first compound 3.16 µM
[28] = second compound 0.1 µM, first compound 10 µM
[29] = second compound 0.316 µM, first compound 0.316 µM
[30] = second compound 0.316 µM, first compound 1 µM
[31] = second compound 0.316 µM, first compound 3.16 µM
[32] = second compound 0.316 µM, first compound 10 µM
[33] = second compound 1 µM, first compound 0.316 µM
[34] = second compound 1 µM, first compound 1 µM
[35] = second compound 1 µM, first compound 3.16 µM
[36] = second compound 1 µM, first compound 10 µM
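Also: spheroids exposed to agents for 7 days before viability read.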
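For viability, T/C in this document: 100% = DMSO vehicle control viability.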

CC(=O)c1c(C)c2cnc(Nc3ccc(N4CCNCC4)cn3)nc2n(C2CCCC2)c1=O + COc1c(OCCCN2CCOCC2)ccc2c3n(c(=NC(=O)c4cnc(N)nc4)nc12)CCN3
inactive: viability, T/C (second compound 0.00316 µM, first compound 0.000316 µM) 99% | viability, T/C (second compound 0.00316 µM, first compound 0.001 µM) 106% | viability, T/C (second compound 0.00316 µM, first compound 0.00316 µM) 118% | viability, T/C (second compound 0.00316 µM, first compound 0.01 µM) 92.3% | viability, T/C [1] 103% | viability, T/C [2] 101% | viability, T/C (second compound 0.01 µM, first compound 0.000316 µM) 92.4% | viability, T/C (second compound 0.01 µM, first compound 0.001 µM) 87.1% | viability, T/C (second compound 0.01 µM, first compound 0.00316 µM) 90.3% | viability, T/C (second compound 0.01 µM, first compound 0.01 µM) 97.5% | viability, T/C [3] 95.7% | viability, T/C [4] 104% | viability, T/C (second compound 0.0316 µM, first compound 0.000316 µM) 82.9% | viability, T/C (second compound 0.0316 µM, first compound 0.001 µM) 90.3% | viability, T/C (second compound 0.0316 µM, first compound 0.00316 µM) 89.9% | viability, T/C (second compound 0.0316 µM, first compound 0.01 µM) 85.2% | viability, T/C [5] 89% | viability, T/C [6] 74.8% | viability, T/C (second compound 0.1 µM, first compound 0.000316 µM) 43.1% | viability, T/C (second compound 0.1 µM, first compound 0.001 µM) 48.6% | viability, T/C (second compound 0.1 µM, first compound 0.00316 µM) 48.7% | viability, T/C (second compound 0.1 µM, first compound 0.01 µM) 37.6% | viability, T/C [7] 37.9% | viability, T/C [8] 32.5% | viability, T/C (second compound 0.316 µM, first compound 0.000316 µM) 23% | viability, T/C (second compound 0.316 µM, first compound 0.001 µM) 20.6% | viability, T/C (second compound 0.316 µM, first compound 0.00316 µM) 20% | viability, T/C (second compound 0.316 µM, first compound 0.01 µM) 19.2% | viability, T/C [9] 19.6% | viability, T/C [10] 17.6% | viability, T/C (second compound 1 µM, first compound 0.000316 µM) 16% | viability, T/C (second compound 1 µM, first compound 0.001 µM) 17.7% | viability, T/C (second compound 1 µM, first compound 0.00316 µM) 16.7% | viability, T/C (second compound 1 µM, first compound 0.01 µM) 16.2% | viability, T/C [11] 13.6% | viability, T/C [12] 14.1%
> 100 nM: IC50 (second compound 0.00316 µM) | IC50 (second compound 0.01 µM) | IC50 (second compound 0.0316 µM)
< 0.316 nM: IC50 (second compound 0.1 µM) | IC50 (second compound 0.316 µM) | IC50 (second compound 1 µM)

CCCS(=O)(=O)Nc1ccc(F)c(C(=O)c2c[nH]c3ncc(-c4ccc(Cl)cc4)cc23)c1F + COc1c(OCCCN2CCOCC2)ccc2c3n(c(=NC(=O)c4cnc(N)nc4)nc12)CCN3
7310 nM: IC50 (second compound 0.0316 µM)
> 10000 nM: IC50 (second compound 0.00316 µM) | IC50 (second compound 0.01 µM)
< 31.6 nM: IC50 (second compound 0.1 µM) | IC50 (second compound 0.316 µM) | IC50 (second compound 1 µM)
active: viability, T/C [28] 8.36%
inactive: viability, T/C [1] 106% | viability, T/C [2] 81% | viability, T/C [13] 88.9% | viability, T/C [14] 77.7% | viability, T/C [15] 87.2% | viability, T/C [16] 52.3% | viability, T/C [3] 86.6% | viability, T/C [4] 77.3% | viability, T/C [17] 86.2% | viability, T/C [18] 87.7% | viability, T/C [19] 95.8% | viability, T/C [20] 74.2% | viability, T/C [5] 83.8% | viability, T/C [6] 89.4% | viability, T/C [21] 79.1% | viability, T/C [22] 89.6% | viability, T/C [23] 86.1% | viability, T/C [24] 36.7% | viability, T/C [7] 42.2% | viability, T/C [8] 48.9% | viability, T/C [25] 38.2% | viability, T/C [26] 43.6% | viability, T/C [27] 28.7% | viability, T/C [9] 18.8% | viability, T/C [10] 20.2% | viability, T/C [29] 20.1% | viability, T/C [30] 22.2% | viability, T/C [31] 20.9% | viability, T/C [32] 7.04% | viability, T/C [11] 15.5% | viability, T/C [12] 16.1% | viability, T/C [33] 18.2% | viability, T/C [34] 18.5% | viability, T/C [35] 15.2% | viability, T/C [36] 6.57%

CNC(=O)c1ccc(N2C(=S)N(c3ccc(C#N)c(C(F)(F)F)c3)C(=O)C2(C)C)cc1F + COc1c(OCCCN2CCOCC2)ccc2c3n(c(=NC(=O)c4cnc(N)nc4)nc12)CCN3
inactive: viability, T/C [1] 102% | viability, T/C [2] 94.3% | viability, T/C [13] 98.5% | viability, T/C [14] 84.6% | viability, T/C [15] 98.2% | viability, T/C [16] 99.9% | viability, T/C [3] 98.9% | viability, T/C [4] 97.1% | viability, T/C [17] 90% | viability, T/C [18] 95.2% | viability, T/C [19] 100% | viability, T/C [20] 117% | viability, T/C [5] 101% | viability, T/C [6] 103% | viability, T/C [21] 96.7% | viability, T/C [22] 104% | viability, T/C [23] 111% | viability, T/C [24] 98% | viability, T/C [7] 44.1% | viability, T/C [8] 39.7% | viability, T/C [25] 46.2% | viability, T/C [26] 53.9% | viability, T/C [27] 64.6% | viability, T/C [28] 51.5% | viability, T/C [9] 25.1% | viability, T/C [10] 26.6% | viability, T/C [29] 22.8% | viability, T/C [30] 23.4% | viability, T/C [31] 28.4% | viability, T/C [32] 28.5% | viability, T/C [11] 17.5% | viability, T/C [12] 21.3% | viability, T/C [33] 14.4% | viability, T/C [34] 21.6% | viability, T/C [35] 17.8% | viability, T/C [36] 16.9%
< 31.6 nM: IC50 (second compound 0.1 µM) | IC50 (second compound 0.316 µM) | IC50 (second compound 1 µM)
> 10000 nM: IC50 (second compound 0.00316 µM) | IC50 (second compound 0.01 µM) | IC50 (second compound 0.0316 µM)
